Test results: patent US9862762B2, “Monoclonal antibodies which bind human periostin” (MEDIMMUNE, LLC, priority 2014, dated 2018)
Several values for one entry are separate records, joined by “and”; a condition that tells them apart may be missing. Equal values may be shown once.

Tests used:
[1] = test system: patients with uncontrolled asthma; settings: above-median vs below-median baseline serum periostin; cited from earlier work
[2] = test system: adults with uncontrolled, severe asthma; assay: Phase 2b study CD-RI-CAT-354-1049 of SC tralokinumab, subgroup analysis by baseline serum periostin; type: in vivo, human; settings: for Asthma exacerbation rate reduction: tralokinumab 300 mg Q2W vs placebo; for Change from baseline in ACQ-6 / Change from baseline in AQLQ / Percent change from baseline in FEV1: tralokinumab 300 mg Q2W
Experimental: A 5-week screening/run-in period (Week-5 to -1 [Day-1]) preceded randomisation. Starting at Week-4 (Day-28), patients received a fixed-dose combination product of fluticasone/salmeterol, either as an MDI (230 μg/21 μg) at a dose of 2 inhalations twice per day or as a DPI (500 μg/50 μg) at a dose of one inhalation twice per day. If the patient was also taking additional asthma controller medications (including leukotriene modifiers, theophylline, cromones, a secondary ICS, or oral prednisolone ≦20 mg/day or equivalent OCS), then these medications were to be continued at a stable dose during the screening/run-in and treatment period.
Patients were randomised in a 1:1 ratio to one of 2 cohorts (Cohort 1 or Cohort 2).
The median periostin level used in the study to define high periostin was a baseline serum periostin of ≧23 ng/mL (i.e., high periostin) as measured using an immunoassay.
FIGS. 11A-B; TABLE 4. The median periostin level used in the study to define high periostin was a baseline serum periostin of about ≧23 ng/mL (i.e., high periostin) as measured using an immunoassay. For a continuous representation of AER reduction by periostin level and percent change from baseline in pre-bronchodilator FEV, by serum periostin level, see FIG. 10.

[3] = test system: EPIAIRWAY tissue (normal and asthmatic lung epithelium); assay: Periostin levels in IL-13 stimulated […] tissue models; type: cell-based, human; settings: stimulation with 50 ng/mL IL-13 for 48 hours (FIG. 6)
Experimental: FIG. 6: Periostin levels in IL-13 Stimulated […]™ Models (Normal and Asthmatic Lung Epithelium). Detection of periostin levels in […]™ tissue obtained from either normal healthy individuals or from asthma patients each receiving different treatments: Advair only; oral and inhaled steroids; no medication; or albuterol only. Periostin levels were determined using the biotin/streptavidin-HRP sandwich ELISA assay using 4B4.B11 as the capture antibody and biotinylated 7B5.C4 as the detection antibody. Samples receiving steroid were pre-treated for 6 hrs with 100 nM budesonide. Samples were either unstimulated or stimulated with 50 ng/mL IL-13±budesonide for 48 hours. Periostin levels increase following stimulation with IL-13. This increase is reduced with steroid treatment.
The assay provided in this disclosure was further used to measure periostin levels in the […]™ tissue model. EpiAirway tissue models were obtained from MatTek corporation. These tissues are a 3-D model of respiratory tract tissue obtained from either normal healthy individuals or from asthma patients. The model was used to evaluate 1 normal donor and 4 asthma donors. The 4 asthma donors each had received different treatments: Advair only; oral and inhaled steroids; no medication; or albuterol only. All tissue samples were cultured in appropriate cell culture media (provided from MatTek) for 24 hrs prior to stimulation. […]

[4] = post hoc, 300 mg Q2W, FEV1 reversibility≧12% and serum periostin≧median at baseline

## lebrikizumab
[1]
  increases in FEV1: larger increases in FEV1

## tralokinumab
[2]; 300 mg Q2W group, through to Week 53, (FIG. 11B)
  percent change from baseline in pre-bronchodilator FEV1 over time: No significant increases in FEV1
[2]; 300 mg Q2W group, through to Week 53, periostin >=median (FIG. 11A)
  percent change from baseline in pre-bronchodilator FEV1 over time: Relative increases in FEV1 were observed
[2]; Q2/4W group, through to Week 53, (FIG. 11B)
  percent change from baseline in pre-bronchodilator FEV1 over time: No significant increases in FEV1
[2]; patients with baseline serum periostin above the median compared to those below the median
  reduction in serum periostin levels: Greater reduction
[2]; [4]
  percentage increase from baseline in pre-bronchodilator FEV1 compared to placebo: 13.85%
  reduction in AER: 54%
[2]; Week 53, ITT (N = 150)
  Asthma exacerbation rate reduction: 7%
[2]; Week 53, baseline serum Periostin ≧ Median
  Asthma exacerbation rate reduction: 25%
[2]; ITT
  Change from baseline in ACQ-6: −0.18
  Change from baseline in AQLQ: 0.21
[2]; Periostin < Median
  Change from baseline in ACQ-6: −0.02
  Change from baseline in AQLQ: 0.21
[2]; Periostin ≧ Median
  Change from baseline in ACQ-6: −0.23
  Change from baseline in AQLQ: 0.22
[2]; Week 53, ITT / regardless of serum periostin level
  Percent change from baseline in FEV1: 7.1%
[2]; Week 53, Periostin < Median
  Percent change from baseline in FEV1: 7.06%
[2]; Week 53, Periostin ≧ Median
  Percent change from baseline in FEV1: 6.75% and 6.8%

## IL-13: 114 amino acid cytokine used to stimulate periostin expression
[3]
  Periostin levels: increase
